Assay results: patent US20040052845A1, “Hydrogel-driven drug dosage form” (priority 2003, published 2004)
Where a name gives a salt, the structure may show the parent alone.

Test: Aqueous solubility of the drug

Compound	solubility (at pH 4) [mgA/mL]	solubility (at pH 7) [mg/mL]
4-[3-[4-(2-methylimidazol-1-yl) phenylthio] phenyl]-3,4,5,6-tetrahydro-2H-pyran-4-carboxamide hemifumarate [Drug 3]	3.7	
CN[C@H]1CC[C@@H](c2ccc(Cl)c(Cl)c2)c2ccccc21 [Drug 2, sertraline HCl]		0.2
